Test results published in ChEMBL document CHEMBL3797053, “2-Alkoxy-3-(sulfonylarylaminomethylene)-chroman-4-ones as potent and selective inhibitors of ectonucleotidases” (Eur J Med Chem, 2016).
The source made the active and inactive calls. The rule behind the calls is not given here.

Tests used:
[1] = target: T1, 5'-nucleotidase (Rattus norvegicus) (UniProt P21588); details: COS-7, 0.5 to 2 uM
T1 sequence (whole entry): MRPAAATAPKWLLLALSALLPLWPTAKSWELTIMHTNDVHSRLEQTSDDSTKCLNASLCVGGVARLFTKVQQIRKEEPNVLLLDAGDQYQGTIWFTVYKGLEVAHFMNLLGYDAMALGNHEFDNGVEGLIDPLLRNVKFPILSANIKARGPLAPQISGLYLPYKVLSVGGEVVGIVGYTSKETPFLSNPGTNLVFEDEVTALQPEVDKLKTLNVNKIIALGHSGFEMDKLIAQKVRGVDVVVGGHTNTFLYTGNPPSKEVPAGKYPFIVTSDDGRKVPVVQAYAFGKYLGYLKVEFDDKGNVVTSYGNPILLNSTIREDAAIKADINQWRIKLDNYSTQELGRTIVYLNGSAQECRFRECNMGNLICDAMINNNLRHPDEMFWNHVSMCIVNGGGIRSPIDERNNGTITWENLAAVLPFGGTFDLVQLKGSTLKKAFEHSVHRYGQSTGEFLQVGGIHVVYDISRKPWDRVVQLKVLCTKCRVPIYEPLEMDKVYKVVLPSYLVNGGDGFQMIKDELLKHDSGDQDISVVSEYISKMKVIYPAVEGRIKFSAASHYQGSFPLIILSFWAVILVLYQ
Description: Uncompetitive inhibition of rat Ecto-5'-nucleotidase transfected in COS7 cells at 0.5 to 2 uM preincubated for 10 mins followed by AMP addition measured after 10 mins by double-reciprocal plot analysis

[2] = target: T2, 5'-nucleotidase (Rattus norvegicus, UniProt P21588); assay: Inhibition of rat Ecto-5'-nucleotidase transfected in COS7 cells preincubated for 10 mins followed by AMP addition measured after 10 mins; type: cell-based, COS-7
T2 sequence (P21588 whole entry): T1 sequence (whole entry)

[3] = target: T3, 5'-nucleotidase (Homo sapiens, UniProt P21589); assay: Inhibition of human Ecto-5'-nucleotidase transfected in COS7 cells preincubated for 10 mins followed by AMP addition measured after 10 mins; type: cell-based, COS-7
T3 sequence (P21589 whole entry): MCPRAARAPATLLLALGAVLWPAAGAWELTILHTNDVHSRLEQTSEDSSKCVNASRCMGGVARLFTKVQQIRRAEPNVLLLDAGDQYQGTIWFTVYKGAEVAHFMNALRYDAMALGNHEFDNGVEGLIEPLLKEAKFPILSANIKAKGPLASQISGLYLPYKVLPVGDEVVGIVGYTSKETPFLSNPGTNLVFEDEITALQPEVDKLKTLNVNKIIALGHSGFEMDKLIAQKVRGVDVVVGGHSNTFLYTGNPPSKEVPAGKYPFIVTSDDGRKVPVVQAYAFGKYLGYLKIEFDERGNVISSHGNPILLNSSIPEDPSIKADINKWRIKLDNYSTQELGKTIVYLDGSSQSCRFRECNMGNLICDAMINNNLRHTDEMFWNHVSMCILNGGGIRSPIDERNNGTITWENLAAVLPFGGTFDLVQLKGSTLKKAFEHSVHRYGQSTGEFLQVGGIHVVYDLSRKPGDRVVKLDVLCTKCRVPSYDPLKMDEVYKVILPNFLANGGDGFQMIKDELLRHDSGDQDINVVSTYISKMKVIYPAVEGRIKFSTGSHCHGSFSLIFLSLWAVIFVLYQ

[4] = target: T3, 5'-nucleotidase; details: COS-7, 0.5 to 2 uM
[5] = target: T4, Alkaline phosphatase, tissue-nonspecific isozyme (Bos taurus, UniProt P09487); assay: Inhibition of bovine tissue non-specific alkaline phosphatase preincubated for 3 to 5 mins followed by CDP-star substrate addition measured after 15 mins by luminescence assay
T4 sequence (P09487 whole entry): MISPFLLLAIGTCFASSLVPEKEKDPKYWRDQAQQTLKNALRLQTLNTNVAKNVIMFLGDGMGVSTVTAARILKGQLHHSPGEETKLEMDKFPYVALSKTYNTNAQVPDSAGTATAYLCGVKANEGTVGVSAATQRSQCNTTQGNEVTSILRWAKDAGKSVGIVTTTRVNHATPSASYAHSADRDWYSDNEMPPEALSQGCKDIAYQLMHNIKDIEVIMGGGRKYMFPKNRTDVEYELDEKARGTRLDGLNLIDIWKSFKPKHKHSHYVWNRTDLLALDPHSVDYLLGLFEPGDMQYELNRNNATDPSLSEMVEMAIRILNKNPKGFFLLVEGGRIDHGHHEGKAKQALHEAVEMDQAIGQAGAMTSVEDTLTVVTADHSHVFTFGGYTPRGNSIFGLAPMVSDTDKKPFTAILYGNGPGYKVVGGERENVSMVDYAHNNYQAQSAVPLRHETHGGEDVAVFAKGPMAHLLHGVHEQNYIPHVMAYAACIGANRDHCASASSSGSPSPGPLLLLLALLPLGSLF

[6] = target: Intestinal-type alkaline phosphatase (Bos taurus, UniProt P19111); assay: Inhibition of calf intestinal alkaline phosphatase preincubated for 3 to 5 mins followed by CDP-star substrate addition measured after 15 mins by luminescence assay
Sequence of Intestinal-type alkaline phosphatase (P19111 whole entry): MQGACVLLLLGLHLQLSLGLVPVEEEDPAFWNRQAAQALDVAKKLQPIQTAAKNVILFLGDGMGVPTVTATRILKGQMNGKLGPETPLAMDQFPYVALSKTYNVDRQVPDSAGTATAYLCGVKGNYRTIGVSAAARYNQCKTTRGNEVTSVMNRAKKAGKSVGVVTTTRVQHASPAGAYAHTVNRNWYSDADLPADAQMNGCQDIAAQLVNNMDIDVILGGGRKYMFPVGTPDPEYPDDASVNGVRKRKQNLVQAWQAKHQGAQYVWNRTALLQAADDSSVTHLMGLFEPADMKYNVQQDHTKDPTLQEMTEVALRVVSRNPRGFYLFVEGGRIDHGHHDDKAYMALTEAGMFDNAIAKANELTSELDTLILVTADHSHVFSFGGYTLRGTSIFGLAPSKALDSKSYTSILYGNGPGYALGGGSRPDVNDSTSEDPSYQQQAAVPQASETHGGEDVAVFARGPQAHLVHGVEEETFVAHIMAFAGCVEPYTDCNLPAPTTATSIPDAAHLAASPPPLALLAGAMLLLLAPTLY

[7] = target: T1, 5'-nucleotidase (Rattus norvegicus); assay: Inhibition of rat Ecto-5'-nucleotidase transfected in COS7 cells at 1 mM preincubated for 10 mins followed by AMP addition measured after 10 mins; type: cell-based; details: COS-7

| inhibition [1] | IC50 [2] | Ki [2] | IC50 [3] | Ki [3] | inhibition [4] | IC50 [5] | Ki [5] | IC50 [6] | Ki [6] | inhibition [7] | Compound |
| --- | --- | --- | --- | --- | --- | --- | --- | --- | --- | --- | --- |
| Active | 0.583 µM | 0.027 µM | – | – | – | – | – | – | – | – | CCOC1Oc2c(Br)cc(Br)cc2C(=O)/C1=C\Nc1cccc(S(N)(=O)=O)c1 (racemic) |
| – | – | – | 0.287 µM | 0.014 µM | Active | 111 µM | 47.5 µM | 17.9 µM | 7.66 µM | 25.7% | CC(C)OC1Oc2ccccc2C(=O)/C1=C\Nc1cccc(S(N)(=O)=O)c1 (racemic) |
